According to patent publication US20250114338A1, “TETRAHYDRO-PYRIDO[3,4-b]INDOLE ESTROGEN RECEPTOR MODULATORS AND USES THEREOF” (Genentech, Inc., priority 2014, published 2025):

tested on: ER-alpha MCF7; assay: ER-alpha MCF7 HCS EC50; stated as measured by in vitro cell proliferation assays of Examples 902 and 903; format: cell-based; settings: Homo sapiens, MCF7, MCF7 cells; Table 2
Summary of the method: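 MCF7 cells seeded 1000-2000 cells/well for 16 h, then treated with nine-point 1:2 DMSO dilution series in quadruplicate at 37 °C, 5% CO2 for 4 days. Viable cells quantified by CellTiter-Glo ATP luminescence; EC50 calculated. Controls: fulvestrant at final 100 nM, DMSO 0.2% v/v.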

| Structure (SMILES) | EC50 [nM] |
| --- | --- |
| C[C@@H]1Cc2c([nH]c3ccccc23)[C@@H](c2ccc(OCCN3CC(CF)C3)cc2F)N1C[C@@](C)(F)CO [Example 273, (R)-2-fluoro-3-((1R,3R)-1-(2-fluoro-4-(2-(3-(fluoromethyl)azetidin-1-yl)ethoxy)phenyl)-3-methyl-1,3,4,9-tetrahydro-2H-pyrido[3,4-b]indol-2-yl)-2-methylpropan-1-ol] | 0.28 |
| C[C@@H]1Cc2c([nH]c3ccccc23)[C@@H](c2ccc(OCCN3CC(CF)C3)cc2F)N1C[C@](C)(F)CO [Example 274, (S)-2-fluoro-3-((1R,3R)-1-(2-fluoro-4-(2-(3-(fluoromethyl)azetidin-1-yl)ethoxy)phenyl)-3-methyl-1,3,4,9-tetrahydro-2H-pyrido[3,4-b]indol-2-yl)-2-methylpropan-1-ol] | 0.253 |
| C[C@@H]1Cc2c([nH]c3ccccc23)[C@@H](c2ccc(OCCN3CC(CF)C3)cc2)N1C[C@](C)(F)CO [Example 276, (S)-2-fluoro-3-((1R,3R)-1-(4-(2-(3-(fluoromethyl)azetidin-1-yl)ethoxy)phenyl)-3-methyl-1,3,4,9-tetrahydro-2H-pyrido[3,4-b]indol-2-yl)-2-methylpropan-1-ol] | 0.309 |
| C[C@@H]1Cc2c([nH]c3ccccc23)[C@@H](c2c(F)cc(OCCN3CC(CF)C3)cc2F)N1C[C@@](C)(O)CO [Example 278, (2R)-3-[(1R,3R)-1-[2,6-difluoro-4-[2-[3-(fluoromethyl)azetidin-1-yl]ethoxy]phenyl]-3-methyl-1,3,4,9-tetrahydropyrido[3,4-b]indol-2-yl]-2-methyl-propane-1,2-diol] | 0.31 |
| C[C@@H]1Cc2c([nH]c3ccccc23)[C@H](c2ccc(OCCN3CC(CF)C3)c(F)c2)N1CC(C)(C)F [Example 280, (1S,3R)-2-(2-fluoro-2-methylpropyl)-1-(3-fluoro-4-(2-(3-(fluoromethyl)azetidin-1-yl)ethoxy)phenyl)-3-methyl-2,3,4,9-tetrahydro-1H-pyrido[3,4-b]indole] | 6 |
| C[C@@H]1Cc2c([nH]c3ccccc23)[C@@H](c2c(F)cc(OC3CN(C[C@@H]4C[C@@H]4F)C3)cc2F)N1CC(C)(C)F [Example 282, (1R,3R)-1-(2,6-difluoro-4-((1-(((1S,2S)-2-fluorocyclopropyl)methyl)azetidin-3-yl)oxy)phenyl)-2-(2-fluoro-2-methylpropyl)-3-methyl-2,3,4,9-tetrahydro-1H-pyrido[3,4-b]indole] | 1 |
| CC(=O)CN1[C@H](c2c(F)cc(OC3CN(CCCF)C3)cc2F)c2[nH]c3ccccc3c2C[C@H]1C [Example 283, 1-[(1R,3R)-1-[2,6-difluoro-4-[1-(3-fluoropropyl)azetidin-3-yl]oxy-phenyl]-3-methyl-1,3,4,9-tetrahydropyrido[3,4-b]indol-2-yl]propan-2-one] | 1 |
| C[C@@H]1Cc2c([nH]c3ccccc23)[C@@H](c2c(F)cc(OC3CN(CCCF)C3)cc2F)N1CC(C)(C)CO [Example 284, 3-[(1R,3R)-1-[2,6-difluoro-4-[1-(3-fluoropropyl)azetidin-3-yl]oxy-phenyl]-3-methyl-1,3,4,9-tetrahydropyrido[3,4-b]indol-2-yl]-2,2-dimethyl-propan-1-ol] | 0.382 |
| CCS(=O)(=O)N1[C@H](c2c(F)cc(OC3CN(CCCF)C3)cc2F)c2[nH]c3ccccc3c2C[C@H]1C [Example 285, (1R,3R)-1-[2,6-difluoro-4-[1-(3-fluoropropyl)azetidin-3-yl]oxy-phenyl]-2-ethylsulfonyl-3-methyl-1,3,4,9-tetrahydropyrido[3,4-b]indole] | 2 |
| C[C@@H]1Cc2c([nH]c3ccccc23)[C@@H](c2c(F)cc(OCCN3CC(CF)C3)cc2F)N1CC(C)(C)CO [Example 287, 3-[(1R,3R)-1-[2,6-difluoro-4-[2-[3-(fluoromethyl)azetidin-1-yl]ethoxy]phenyl]-3-methyl-1,3,4,9-tetrahydropyrido[3,4-b]indol-2-yl]-2,2-dimethyl-propan-1-ol] | 1 |
| C[C@@H]1Cc2c([nH]c3ccccc23)[C@@H](c2ccc(NC3CN(CCCF)C3)cc2F)N1C[C@@](C)(F)CO [Example 290, (R)-2-fluoro-3-((1R,3R)-1-(2-fluoro-4-((1-(3-fluoropropyl)azetidin-3-yl)amino)phenyl)-3-methyl-1,3,4,9-tetrahydro-2H-pyrido[3,4-b]indol-2-yl)-2-methylpropan-1-ol] | 0.497 |
| C[C@@H]1Cc2c([nH]c3ccccc23)[C@@H](c2ccc(NC3CN(CCCF)C3)cc2)N1C[C@@](C)(F)CO [Example 292, (R)-2-fluoro-3-((1R,3R)-1-(4-((1-(3-fluoropropyl)azetidin-3-yl)amino)phenyl)-3-methyl-1,3,4,9-tetrahydro-2H-pyrido[3,4-b]indol-2-yl)-2-methylpropan-1-ol] | 2 |
| CC(=O)CN1[C@@H](c2c(F)cc(OC3CN(CCCF)C3)cc2F)c2[nH]c3ccccc3c2C[C@H]1C [Example 295, 1-((1S,3R)-1-(2,6-difluoro-4-((1-(3-fluoropropyl)azetidin-3-yl)oxy)phenyl)-3-methyl-1,3,4,9-tetrahydro-2H-pyrido[3,4-b]indol-2-yl)propan-2-one] | 21 |
| C[C@@H]1Cc2c([nH]c3ccccc23)[C@@H](c2c(F)cc(OCCN3CC(CF)C3)cc2F)N1C[C@H](C)C(=O)N(C)C [Example 297, (S)-3-((1R,3R)-1-(2,6-difluoro-4-(2-(3-(fluoromethyl)azetidin-1-yl)ethoxy)phenyl)-3-methyl-1,3,4,9-tetrahydro-2H-pyrido[3,4-b]indol-2-yl)-N,N,2-trimethylpropanamide] | 18 |
| C[C@H](CN1[C@H](c2c(F)cc(OCCN3CC(CF)C3)cc2F)c2[nH]c3ccccc3c2C[C@H]1C)C(=O)N(C)C [Example 298, (R)-3-((1R,3R)-1-(2,6-difluoro-4-(2-(3-(fluoromethyl)azetidin-1-yl)ethoxy)phenyl)-3-methyl-1,3,4,9-tetrahydro-2H-pyrido[3,4-b]indol-2-yl)-N,N,2-trimethylpropanamide] | 5 |

Stronger by EC50, values ahead:

| EC50 [nM] | Structure (SMILES) |
| --- | --- |
| 0.166 | C[C@@H]1Cc2c([nH]c3ccccc23)[C@@H](c2ccc(OCCN3CC(CF)C3)cc2)N1C[C@@](C)(F)CO [Example 275, (R)-2-fluoro-3-((1R,3R)-1-(4-(2-(3-(fluoromethyl)azetidin-1-yl)ethoxy)phenyl)-3-methyl-1,3,4,9-tetrahydro-2H-pyrido[3,4-b]indol-2-yl)-2-methylpropan-1-ol] |
| 0.09 | C[C@@H]1Cc2c([nH]c3ccccc23)[C@@H](c2c(F)cc(OC3CN(CCCF)C3)cc2F)N1CC(F)(F)F [Example 277, (1R,3R)-1-[2,6-difluoro-4-[1-(3-fluoropropyl)azetidin-3-yl]oxy-phenyl]-3-methyl-2-(2,2,2-trifluoroethyl)-1,3,4,9-tetrahydropyrido[3,4-b]indole] |
| 0.16 | C[C@@H]1Cc2c([nH]c3ccccc23)[C@@H](c2ccc(OCCN3CC(CF)C3)c(F)c2)N1CC(C)(C)F [Example 279, (1R,3R)-2-(2-fluoro-2-methylpropyl)-1-(3-fluoro-4-(2-(3-(fluoromethyl)azetidin-1-yl)ethoxy)phenyl)-3-methyl-2,3,4,9-tetrahydro-1H-pyrido[3,4-b]indole] |
| 0.183 | C[C@@H]1Cc2c([nH]c3ccccc23)[C@@H](c2ccc(OCCN3CC(CF)C3)c(F)c2F)N1CC(C)(C)F [Example 281, (1R,3R)-1-(2,3-difluoro-4-(2-(3-(fluoromethyl)azetidin-1-yl)ethoxy)phenyl)-2-(2-fluoro-2-methylpropyl)-3-methyl-2,3,4,9-tetrahydro-1H-pyrido[3,4-b]indole] |
| 0.0978 | C[C@@H]1Cc2c([nH]c3ccccc23)[C@@H](c2c(F)cc(OCCN3CC(CF)C3)cc2F)N1CC(F)(F)CO [Example 286, 3-[(1R,3R)-1-[2,6-difluoro-4-[2-[3-(fluoromethyl)azetidin-1-yl]ethoxy]phenyl]-3-methyl-1,3,4,9-tetrahydropyrido[3,4-b]indol-2-yl]-2,2-difluoro-propan-1-ol] |
| 0.0528 | C[C@@H]1Cc2c([nH]c3ccccc23)[C@@H](c2c(F)cc(NC3CN(CCCF)C3)cc2F)N1C[C@@](C)(F)CO [Example 288, (R)-3-((1R,3R)-1-(2,6-difluoro-4-((1-(3-fluoropropyl)azetidin-3-yl)amino)phenyl)-3-methyl-1,3,4,9-tetrahydro-2H-pyrido[3,4-b]indol-2-yl)-2-fluoro-2-methylpropan-1-ol] |
| 0.199 | C[C@@H]1Cc2c([nH]c3ccccc23)[C@@H](c2c(F)cc(NC3CN(CCCF)C3)cc2F)N1C[C@](C)(F)CO [Example 289, (S)-3-((1R,3R)-1-(2,6-difluoro-4-((1-(3-fluoropropyl)azetidin-3-yl)amino)phenyl)-3-methyl-1,3,4,9-tetrahydro-2H-pyrido[3,4-b]indol-2-yl)-2-fluoro-2-methylpropan-1-ol] |
| 0.13 | C[C@@H]1Cc2c([nH]c3ccccc23)[C@@H](c2ccc(NC3CN(CCCF)C3)cc2F)N1C[C@](C)(F)CO [Example 291, (S)-2-fluoro-3-((1R,3R)-1-(2-fluoro-4-((1-(3-fluoropropyl)azetidin-3-yl)amino)phenyl)-3-methyl-1,3,4,9-tetrahydro-2H-pyrido[3,4-b]indol-2-yl)-2-methylpropan-1-ol] |
| 0.15 | C[C@@H]1Cc2c([nH]c3ccccc23)[C@@H](c2ccc(NC3CN(CCCF)C3)cc2)N1C[C@](C)(F)CO [Example 293, (S)-2-fluoro-3-((1R,3R)-1-(4-((1-(3-fluoropropyl)azetidin-3-yl)amino)phenyl)-3-methyl-1,3,4,9-tetrahydro-2H-pyrido[3,4-b]indol-2-yl)-2-methylpropan-1-ol] |
| 0.2 | C[C@@H]1Cc2c([nH]c3ccccc23)[C@@H](c2c(F)cc(NCCN3CC(CF)C3)cc2F)N1CC(F)(F)F [Example 296, 3,5-difluoro-N-(2-(3-(fluoromethyl)azetidin-1-yl)ethyl)-4-((1R,3R)-3-methyl-2-(2,2,2-trifluoroethyl)-2,3,4,9-tetrahydro-1H-pyrido[3,4-b]indol-1-yl)aniline] |
